Tests used:
[1] = target: Acetylcholinesterase (Homo sapiens, UniProt P22303); assay type: functional
[2] = target: T1, Progesterone receptor (Homo sapiens, UniProt P06401); assay type: functional
T1 sequence (P06401 whole entry): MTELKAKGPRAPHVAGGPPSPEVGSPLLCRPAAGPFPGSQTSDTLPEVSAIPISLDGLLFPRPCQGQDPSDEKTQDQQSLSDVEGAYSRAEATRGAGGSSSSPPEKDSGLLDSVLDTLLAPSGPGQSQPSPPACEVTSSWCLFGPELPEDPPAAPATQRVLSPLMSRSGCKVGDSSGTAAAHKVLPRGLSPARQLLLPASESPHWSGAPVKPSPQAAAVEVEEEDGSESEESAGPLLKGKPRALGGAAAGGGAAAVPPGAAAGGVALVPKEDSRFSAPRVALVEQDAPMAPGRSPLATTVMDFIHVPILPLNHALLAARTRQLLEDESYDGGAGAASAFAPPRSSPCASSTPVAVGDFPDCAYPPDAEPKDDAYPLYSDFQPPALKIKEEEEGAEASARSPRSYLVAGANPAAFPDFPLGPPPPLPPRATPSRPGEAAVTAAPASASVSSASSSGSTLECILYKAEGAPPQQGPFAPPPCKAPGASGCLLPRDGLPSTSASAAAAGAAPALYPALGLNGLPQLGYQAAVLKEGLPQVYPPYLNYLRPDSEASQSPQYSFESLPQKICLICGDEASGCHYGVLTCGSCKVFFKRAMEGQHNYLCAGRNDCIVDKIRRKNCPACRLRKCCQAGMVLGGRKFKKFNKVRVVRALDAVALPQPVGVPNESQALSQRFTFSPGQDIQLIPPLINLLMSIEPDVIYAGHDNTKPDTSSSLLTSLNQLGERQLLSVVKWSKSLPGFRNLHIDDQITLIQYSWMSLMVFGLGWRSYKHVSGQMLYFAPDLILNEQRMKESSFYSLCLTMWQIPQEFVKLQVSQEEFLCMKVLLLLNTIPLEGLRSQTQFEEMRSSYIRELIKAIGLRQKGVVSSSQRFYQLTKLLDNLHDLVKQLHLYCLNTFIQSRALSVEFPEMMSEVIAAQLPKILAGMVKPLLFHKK

[3] = target: Cannabinoid receptor 1 (Homo sapiens, UniProt P21554); assay type: functional, cell-based
Chain of Cannabinoid receptor 1 (P21554 whole entry): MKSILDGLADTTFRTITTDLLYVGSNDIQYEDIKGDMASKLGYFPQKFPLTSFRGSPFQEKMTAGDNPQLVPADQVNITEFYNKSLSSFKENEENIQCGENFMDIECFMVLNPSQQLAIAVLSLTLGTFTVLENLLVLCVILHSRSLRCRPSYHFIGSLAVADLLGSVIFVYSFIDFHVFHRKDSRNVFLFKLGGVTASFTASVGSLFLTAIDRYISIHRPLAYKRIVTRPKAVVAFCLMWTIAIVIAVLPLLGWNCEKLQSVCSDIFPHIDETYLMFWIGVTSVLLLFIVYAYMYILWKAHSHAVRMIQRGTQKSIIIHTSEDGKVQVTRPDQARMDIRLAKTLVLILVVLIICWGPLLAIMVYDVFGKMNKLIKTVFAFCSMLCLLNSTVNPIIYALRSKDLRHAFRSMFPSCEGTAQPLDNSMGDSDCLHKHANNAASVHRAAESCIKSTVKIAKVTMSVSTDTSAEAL

[4] = target: Gamma-aminobutyric acid receptor subunit alpha-1 (Rattus norvegicus, UniProt P62813)
Chain of Gamma-aminobutyric acid receptor subunit alpha-1 (P62813 whole entry): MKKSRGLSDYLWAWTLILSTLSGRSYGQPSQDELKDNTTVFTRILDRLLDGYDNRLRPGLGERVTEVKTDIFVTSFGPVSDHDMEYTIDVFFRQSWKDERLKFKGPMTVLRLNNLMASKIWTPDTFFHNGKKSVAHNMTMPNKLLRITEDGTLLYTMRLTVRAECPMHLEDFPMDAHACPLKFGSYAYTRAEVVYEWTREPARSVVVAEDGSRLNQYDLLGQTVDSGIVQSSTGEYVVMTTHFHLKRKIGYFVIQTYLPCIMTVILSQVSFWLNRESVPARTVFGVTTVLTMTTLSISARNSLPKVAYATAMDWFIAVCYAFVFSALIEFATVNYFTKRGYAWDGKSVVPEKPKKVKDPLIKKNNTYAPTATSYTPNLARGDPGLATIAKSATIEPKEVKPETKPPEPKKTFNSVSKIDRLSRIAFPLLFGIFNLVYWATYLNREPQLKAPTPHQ

[5] = target: T2, Adenosine receptor A3 (Homo sapiens, UniProt P0DMS8)
T2 sequence (P0DMS8 whole entry): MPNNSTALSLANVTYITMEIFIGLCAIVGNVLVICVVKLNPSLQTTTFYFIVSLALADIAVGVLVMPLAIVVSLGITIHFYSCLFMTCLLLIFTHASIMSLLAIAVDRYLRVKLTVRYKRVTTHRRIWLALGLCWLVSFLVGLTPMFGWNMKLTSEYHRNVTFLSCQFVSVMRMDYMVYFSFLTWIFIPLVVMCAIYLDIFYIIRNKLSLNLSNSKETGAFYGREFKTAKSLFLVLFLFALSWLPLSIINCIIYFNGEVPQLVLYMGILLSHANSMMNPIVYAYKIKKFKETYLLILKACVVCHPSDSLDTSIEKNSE

[6] = target: T3, Alpha-1A adrenergic receptor (Homo sapiens, UniProt P35348); assay type: functional, cell-based
T3 sequence (P35348 whole entry): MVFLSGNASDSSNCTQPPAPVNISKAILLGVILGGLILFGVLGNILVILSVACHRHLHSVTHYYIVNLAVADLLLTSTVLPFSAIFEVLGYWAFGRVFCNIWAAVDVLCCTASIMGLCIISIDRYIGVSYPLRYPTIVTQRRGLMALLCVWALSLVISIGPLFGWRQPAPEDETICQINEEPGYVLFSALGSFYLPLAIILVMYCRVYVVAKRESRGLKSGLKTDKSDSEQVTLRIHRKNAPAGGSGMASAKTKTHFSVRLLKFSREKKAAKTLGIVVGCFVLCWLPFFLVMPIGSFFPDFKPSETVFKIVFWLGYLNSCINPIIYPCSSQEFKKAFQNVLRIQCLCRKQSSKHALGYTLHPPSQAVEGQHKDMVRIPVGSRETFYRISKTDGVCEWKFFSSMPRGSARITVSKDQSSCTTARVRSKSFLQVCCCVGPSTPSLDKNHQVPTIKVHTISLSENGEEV

[7] = target: cGMP-inhibited 3',5'-cyclic phosphodiesterase 3A (Homo sapiens, UniProt Q14432); assay type: functional
Chain of cGMP-inhibited 3',5'-cyclic phosphodiesterase 3A (Q14432 whole entry): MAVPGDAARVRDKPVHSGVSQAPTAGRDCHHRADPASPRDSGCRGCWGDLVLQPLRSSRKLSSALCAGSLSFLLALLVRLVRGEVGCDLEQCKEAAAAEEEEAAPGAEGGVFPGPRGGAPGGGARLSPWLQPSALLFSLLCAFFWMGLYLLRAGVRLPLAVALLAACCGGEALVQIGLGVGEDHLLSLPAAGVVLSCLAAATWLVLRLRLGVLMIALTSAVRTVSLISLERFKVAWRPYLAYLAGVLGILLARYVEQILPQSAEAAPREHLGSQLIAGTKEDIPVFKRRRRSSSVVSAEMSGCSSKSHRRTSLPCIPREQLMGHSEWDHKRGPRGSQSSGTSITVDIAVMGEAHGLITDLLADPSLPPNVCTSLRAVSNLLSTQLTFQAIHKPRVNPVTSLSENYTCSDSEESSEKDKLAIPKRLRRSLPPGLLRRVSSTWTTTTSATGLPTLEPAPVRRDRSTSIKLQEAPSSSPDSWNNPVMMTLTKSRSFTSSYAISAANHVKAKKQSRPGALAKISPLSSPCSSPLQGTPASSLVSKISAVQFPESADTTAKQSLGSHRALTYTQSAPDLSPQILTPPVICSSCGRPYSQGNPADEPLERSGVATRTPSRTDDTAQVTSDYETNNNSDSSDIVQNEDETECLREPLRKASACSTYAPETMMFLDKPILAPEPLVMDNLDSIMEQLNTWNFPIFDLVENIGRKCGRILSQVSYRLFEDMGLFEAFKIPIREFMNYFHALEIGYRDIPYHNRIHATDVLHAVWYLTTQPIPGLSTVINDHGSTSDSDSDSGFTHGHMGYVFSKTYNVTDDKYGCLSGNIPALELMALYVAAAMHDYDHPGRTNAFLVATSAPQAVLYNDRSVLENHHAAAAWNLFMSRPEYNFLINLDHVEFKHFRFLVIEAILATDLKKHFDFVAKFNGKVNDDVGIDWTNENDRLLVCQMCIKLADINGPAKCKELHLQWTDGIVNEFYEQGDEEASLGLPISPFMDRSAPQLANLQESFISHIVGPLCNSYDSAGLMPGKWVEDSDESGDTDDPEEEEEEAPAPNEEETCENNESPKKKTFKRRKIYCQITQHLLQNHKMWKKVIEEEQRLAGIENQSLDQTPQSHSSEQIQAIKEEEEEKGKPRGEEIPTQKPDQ

[8] = target: T4, Neuropeptide Y receptor type 1 (Homo sapiens, UniProt P25929)
T4 sequence (P25929 whole entry): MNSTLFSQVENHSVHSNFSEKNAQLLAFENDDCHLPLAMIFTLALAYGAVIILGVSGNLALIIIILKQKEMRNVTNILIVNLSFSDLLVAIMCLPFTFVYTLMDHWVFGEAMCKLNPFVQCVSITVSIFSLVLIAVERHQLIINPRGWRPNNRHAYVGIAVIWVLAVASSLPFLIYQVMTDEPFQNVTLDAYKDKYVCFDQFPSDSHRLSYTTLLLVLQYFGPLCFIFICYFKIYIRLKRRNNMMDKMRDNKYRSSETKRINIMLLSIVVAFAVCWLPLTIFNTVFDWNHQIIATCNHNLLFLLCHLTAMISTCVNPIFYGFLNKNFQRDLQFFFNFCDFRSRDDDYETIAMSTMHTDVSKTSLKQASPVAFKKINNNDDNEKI

[9] = target: T5, Muscarinic acetylcholine receptor M2 (Homo sapiens, UniProt P08172); assay type: functional, cell-based
T5 sequence (P08172 whole entry): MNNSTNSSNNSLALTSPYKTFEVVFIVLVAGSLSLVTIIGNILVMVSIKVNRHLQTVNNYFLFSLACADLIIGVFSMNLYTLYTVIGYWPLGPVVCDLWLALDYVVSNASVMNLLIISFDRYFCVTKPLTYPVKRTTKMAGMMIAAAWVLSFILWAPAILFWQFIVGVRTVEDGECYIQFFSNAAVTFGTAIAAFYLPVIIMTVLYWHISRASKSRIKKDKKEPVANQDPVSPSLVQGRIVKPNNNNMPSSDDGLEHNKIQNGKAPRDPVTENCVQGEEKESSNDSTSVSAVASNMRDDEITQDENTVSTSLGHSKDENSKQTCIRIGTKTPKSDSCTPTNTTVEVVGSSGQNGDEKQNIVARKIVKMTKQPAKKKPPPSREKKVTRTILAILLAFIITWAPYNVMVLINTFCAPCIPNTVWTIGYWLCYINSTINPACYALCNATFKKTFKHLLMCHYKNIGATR
Further: assay procedure not described here.

Chain of Acetylcholinesterase (P22303 whole entry): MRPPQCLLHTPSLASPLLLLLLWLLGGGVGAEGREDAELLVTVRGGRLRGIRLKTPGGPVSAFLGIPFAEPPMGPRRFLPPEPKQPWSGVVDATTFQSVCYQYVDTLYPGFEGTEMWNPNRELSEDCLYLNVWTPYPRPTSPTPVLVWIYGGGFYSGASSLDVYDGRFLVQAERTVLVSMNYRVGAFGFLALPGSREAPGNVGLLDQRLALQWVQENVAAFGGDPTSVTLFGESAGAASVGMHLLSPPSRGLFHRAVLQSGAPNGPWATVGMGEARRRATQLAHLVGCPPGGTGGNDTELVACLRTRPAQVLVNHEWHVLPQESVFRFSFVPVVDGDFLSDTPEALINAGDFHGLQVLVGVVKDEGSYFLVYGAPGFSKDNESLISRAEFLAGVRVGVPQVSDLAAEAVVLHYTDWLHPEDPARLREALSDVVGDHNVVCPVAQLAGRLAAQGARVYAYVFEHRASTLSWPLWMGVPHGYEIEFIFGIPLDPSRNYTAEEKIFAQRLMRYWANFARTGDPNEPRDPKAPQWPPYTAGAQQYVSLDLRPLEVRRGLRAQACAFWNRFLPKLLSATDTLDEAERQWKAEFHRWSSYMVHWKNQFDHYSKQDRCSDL

SMILES | AC50 [1] | AC50 [2] | AC50 [3] | AC50 [4] | AC50 [5] | AC50 [6] | AC50 [7] | AC50 [8] | AC50 [9]
CN(C)CCC=C1c2ccccc2CCc2ccccc21 [AMITRIPTYLINE] | > 30 µM | > 30 µM | > 30 µM | > 10 µM | > 30 µM | 0.12 µM | > 30 µM | > 30 µM | 
O=C1[C@@H]2[C@H]3CC[C@H](C3)[C@@H]2C(=O)N1C[C@@H]1CCCC[C@H]1CN1CCN(c2nsc3ccccc23)CC1 [LURASIDONE] | > 30 µM | > 30 µM | > 30 µM |  | 6.36 µM |  | > 30 µM |  | 
CC(=O)Oc1ccccc1C(=O)O [ASPIRIN] | > 30 µM |  | > 30 µM | > 10 µM | > 30 µM | > 30 µM | > 30 µM | > 30 µM | > 30 µM
CN(C)CCCC1(c2ccc(F)cc2)OCc2cc(C#N)ccc21 (stereo not given) [CITALOPRAM] | > 30 µM |  | > 30 µM | > 10 µM | > 30 µM |  | > 30 µM | > 30 µM | 
CCOC(=O)[C@H](CCc1ccccc1)N[C@@H](C)C(=O)N1Cc2ccccc2C[C@H]1C(=O)O | > 30 µM |  | > 30 µM | > 10 µM | > 30 µM | > 30 µM | > 30 µM | > 30 µM | > 10 µM
CN(C)CCN(Cc1ccccc1)c1ccccn1 [TRIPELENNAMINE] | > 30 µM |  |  | > 10 µM | > 30 µM |  | > 30 µM | > 10 µM | > 10 µM
NC(=O)C1(N2CCCCC2)CCN(CCCC(=O)c2ccc(F)cc2)CC1 [PIPAMPERONE] | > 30 µM |  |  |  | > 30 µM |  | > 30 µM |  | 
Cc1cc(C)cc(OCC2CNC(=O)O2)c1 (stereo not given) [METAXALONE] | > 30 µM |  |  |  | > 30 µM |  | > 30 µM |  | 
NCC1(CC(=O)O)CCCCC1 [GABAPENTIN] | > 30 µM | > 30 µM | > 30 µM | > 10 µM | > 30 µM | > 30 µM | > 30 µM | > 30 µM | > 30 µM
CC(C)NC[C@H](O)COc1ccc(O)cc1 [PRENALTEROL] | > 30 µM |  |  |  | > 30 µM |  | > 30 µM |  | 
Cc1c(C)c2c(c(C)c1O)CCC(C)(COc1ccc(CC3SC(=O)NC3=O)cc1)O2 (stereo not given) [TROGLITAZONE] | > 30 µM | 16 µM | > 30 µM | > 30 µM | 3.29 µM | > 30 µM | 11 µM | > 30 µM | > 30 µM
NC(=O)C1(N2CCCCC2)CCN(CCCN2c3ccccc3CCc3ccccc32)CC1 [CARPIPRAMINE] | > 30 µM |  |  |  | > 30 µM |  | > 30 µM |  | 
O=C(O)[C@H](O)[C@@H](O)[C@H](O)[C@H](O)CO [GLUCONIC ACID] | > 30 µM |  |  |  | > 30 µM |  | > 30 µM |  | 
O=P1(N(CCCl)CCCl)NCCCO1 (stereo not given) [CYCLOPHOSPHAMIDE ANHYDROUS] | > 30 µM |  |  |  | > 30 µM |  | > 30 µM |  | 
CN1CCN(C(c2ccccc2)c2ccc(Cl)cc2)CC1 (stereo not given) [CHLORCYCLIZINE] | > 30 µM |  |  |  | > 30 µM |  | > 30 µM |  | 
